{"source": "patent US6420570B1", "about": "“Psoralen compounds” (priority 1993, dated 2002)", "key": {"TA1538": {"system": "TA1538", "assay": "Ames assay, dark mutagenicity, strain TA1538", "description": "(§1) In this example the compounds of the present invention are tested for their dark mutagenicity using an Ames assay. The procedures used for the Salmonella mutagenicity test as described in detail by Maron and Ames were followed exactly. Maron, D. M. and B. N. Ames, Mutation Research 113:173 (1983). A brief description for each procedure is given here. The tester strains TA97a, TA98, TA100, TA102, TA1537 and TA1538 were obtained from Dr. Ames. TA97a, TA98, TA1537 and TA1538 are frameshift tester strains. TA100 and TA102 are base-substitution tester strains. Upon receipt each strain was cultured under a variety of conditions to confirm the genotypes specific to the strains.\n(§2) The first tests done with the strains were to determine the range of spontaneous reversion for each of the strains. With each mutagenicity experiment the spontaneous reversion of the tester strains to histidine independence was measured and expressed as the number of spontaneous revertants per plate. This served as the background controls.\n(§3) For all experiments, the pre-incubation procedure was used. In this procedure one vial of each tester strain was thawed and 20 μL of this culture was added to 6 mL of Oxoid Nutrient Broth #2. This solution was allowed to shake for 10 hours at 37° C. In the pre-incubation procedure, 0.1 mL of this overnight culture was added to each of the required number of sterile test tubes. To half of the tubes 0.5 mL of a 10% S-9 solution containing Aroclor 1254 induced rat liver extract (Molecular Toxicology Inc., Annapolis, MD), and MgCl2, KCl, glucose-6-phosphate, NADP, and sodium phosphate buffer (Sigma, St. Louis. Mo.) were added. To the other half of the tubes 0.5 mL of 0.2M sodium phospate buffer, pH 7.4, was used in place of the S-9 mixture (the -S9 samples) Finally 0.1 mL of the test solution containing either 0.0.1, 0.5, 1, 5, 10, 50, 100, 250, or 500 μg/mL of the test compound was added. The 0.7 mL mixture pre-incubated while shaking for 20 minutes at 37° C. After shaking, 2 mL of molten top agar supplemented with histidine and biotin were added to the 0.7 mL mixture and immediately poured onto a minimal glucose agar plate (volume of base agar was 20 ml.). The top agar was allowed 30 minutes to solidify and then the plates were inverted and incubated for 44 hours at 37° C. After incubation the number of revertant colonies on each plate were counted. […] (“n” represents the number of replicates performed for each data point.)\n(§4) Maron and Ames (1983) describe the conflicting views with regard to the statistical treatment of data generated from the test."}, "[1]": {"system": "Salmonella tester strains", "assay": "Ames assay, dark mutagenicity, overall over tester strains", "conditions": "base-substitution tester strains TA100 and TA102", "description": "as §1, §2, §3, §4"}, "TA100": {"system": "TA100", "description": "as §1, §2, §3, §4"}, "R17 [2]": {"system": "R17", "assay": "R17 bacteriophage inactivation screen, varying compound concentration", "type": "cell-based", "conditions": "starting titer approx. 7.1 logs", "description": "The assay used to predict pathogen inactivation efficiency and to determine nucleic acid binding of the photoreactive binding compounds of the present invention was that in which a bacteriophage, R17, in solution with the desired substrate was irradiated. The ability of the phage to subsequently infect bacteria and inhibit their growth was measured. The bacteriophage was selected for its relatively accessible nucleic acid such that the culture growth inhibition would accurately reflect nucleic acid damage by the test compounds. The bacteriophage assay for nucleic acid binding to test compounds offers a safe and inexpensive procedure to identify compounds likely to display efficient pathogen inactivation. […] An aliquot (0.5 mL) was transferred to a 1.5 mL, snap-top polyethylene tube. An aliquot (0.004-0.040 mL) of the test compound stock solution prepared in water, ethanol or dimethylsulfoxide at 0.80-8.0 mM was added to the tube. Compounds were tested at concentrations between 4 μM and 320 μM. (AMT is commercially available from HRI, Inc., Concord, Calif.; 8-MOP is commercially available from Sigma, St. Louis, Mo.). The tubes were placed in a light device as described in EXAMPLE 1 and irradiated for between 1 and 10 minutes. […] To make the dilutions, a 0.100 mL aliquot of the irradiated solution of phage and test compound was added to the first dilution tube of 0.4 mL of media then 0.020 mL of this solution was added to the second tube of 0.5 mL medium (1:25). The second solution was then diluted serially (1:25) into the remaining tubes. […] After the top agar hardened, the plates were incubated at 37° C. overnight. The plaque forming units were then counted the following morning and the titer of the phage remaining after phototreatment was calculated based on the dilution factors. The following controls were run: the “phage only” in which phage was not treated with test compound and not irradiated (listed as “starting titer” in the tables below); the “UV only” in which the phage was irradiated in the absence of test compound; and the “dark” control in which the phage/test compound solution was not irradiated before it was diluted and plated."}, "TA1537": {"system": "TA1537", "assay": "Ames assay, dark mutagenicity, strain TA1537", "description": "as §1, §2, §3, §4"}, "cell-free virus (HIV)": {"system": "cell-free virus (HIV)", "type": "cell-based", "conditions": "1 minute irradiation", "protocol": "Pathogen inactivation efficiency of several compounds of the present invention was evaluated by examining the ability of the compounds to inactivate cell-free virus (HIV). Inactivation of cell-free HIV was performed as follows.\nAs in the R17 assay, small aliquots of the compounds listed in TABLES 8 and 9, below, at the concentrations listed in the table, were added to stock HIV-1 to a total of 0.5 mL. The stock HIV (10^5-10^7 plaque forming units/mL) was in DMEM/15% FBS. […] Controls included HIV-1 stock only, HIV-1 plus UVA only, and HIV-1 plus the highest concentration of each psoralen tested, with no UVA. Post irradiation, all samples were stores frozen at −70° C. until assayed for infectivity by a microtiter plaque assay. Aliquots for measurement of residual HIV infectivity in the samples treated with a compound of the present invention were withdrawn and cultured.\nResidual HIV infectivity was assayed using an MT-2 infectivity assay. […] The assay medium was 85% DMEM (with a high glucose concentration) containing 100 μg of streptomycin, 100 U of penicillin, 50 μg of gentamicin, and 1 μg of amphotericin B per mL, 15% FBS and 2 μg of Polybrene (Sigma Chemical Co., St. Louis, Mo.) per mL. Test and control samples from the inactivation procedure were diluted in 50% assay medium and 50% normal human pooled plasma. The samples were serially diluted directly in 96-well plates (Corning Glass Works, corning, N.Y.). The plates were mixed on an oscillatory shaker for 30 seconds and incubated at 37° C. in a 5% CO2 atmosphere for 1 to 18 hours. […] After an additional 1 hour of incubation at 37° C. in 5% CO2, 0.075 mL of assay medium containing 1.6% SeaPlaque agarose (FMC Bioproducts, Rockland, me.) and prewarmed to 38.5° C. was added to each well. The plates were kept at 37° C. for a few minutes until several plates had accumulated and then centrifuged in plate carriers at 600×g for 20 minutes in a centrifuge precooled to 10° C. In the centrifuge, cell monolayers formed prior to gelling of the agarose layer. The plates were incubated for 5 days at 37° C. in 5% CO2 and stained by the addition of 0.05 mL of 50 μg/mL propidium iodide (Sigma Chemical Co.) in phosphate-buffered saline (pH 7.4) to each well. After 24 to 48 hours, the red fluorescence-stained microplaques were visualized by placing the plates on an 8,000 μW/cm^2 304 nm UV light box (Fotodyne, Inc., New Berlin, Wis.). The plaques were counted at a magnification of ×20 to ×25 through a stereomicroscope. “n” represents the number of runs for which the data point is an average."}, "R17 [3]": {"system": "R17", "assay": "R17 inactivation at constant concentration, varying doses of UV light", "type": "cell-based, bacteriophage R17", "conditions": "UV doses 1.0 to 3.0 J/cm^2, FIGS. 11-17", "description": "Compounds of the present invention were also tested at a constant concentration for varying doses of UV light. Three sets of 1.5 mL tubes were prepared containing 0.6 mL aliquots of R17 in DMEM (prepared as described above). The compound tested was added at the desired concentration and the samples were vortexed. The samples were then irradiated at intervals of 1.0 J/cm^2, until 3.0 J/cm^2 was reached. Between each 1.0 J/cm^2 interval, 100 μL was removed from each sample and placed in the first corresponding dilution tube, then five sequential dilutions were performed for each compound tested, at all 3 irradiation doses, as described above in this example.\nThen 50 μL of Hfr 3000 bacteria was added to each tube, 3 mL of top agar was added and the tube contents were vortexed. The contents of each tube was poured into its own LB plate and the plates were incubated overnight at 37° C. Plaques were counted by visual inspection the following morning."}, "[4]": {"conditions": "Table 8, HIV starting titer approximately 5 logs"}, "[5]": {"conditions": "Table 9, HIV starting titer approximately 5.4 logs"}}, "note": "Where a name gives a salt, the structure may show the parent alone. Read-outs that look alike come from different tables or passages of the source.", "data": [{"smiles": "Cc1oc2c(C)c3oc(=O)cc(C)c3cc2c1CNCCCCN", "note": "[Compound 6, 4′-(6-Aminohexyl-2-aza)-4,5′,8-trimethylpsoralen Dihydrochloride]", "values": [{"measurement": "revertant colonies per plate", "setting": "TA1538; TA1538 +S9, 5 μg/plate", "value": 0}, {"measurement": "revertant colonies per plate", "setting": "TA1538; TA1538 +S9, 10 μg/plate", "value": 8}, {"measurement": "revertant colonies per plate", "setting": "TA1538; TA1538 −S9, 5 μg/plate", "value": "−5"}, {"measurement": "base-substitution mutagenicity", "setting": "[1]", "value": "no base substitution mutagenicity"}, {"measurement": "revertant colonies per plate", "setting": "TA100; TA100 +S9, 5 μg/plate", "value": 12}, {"measurement": "revertant colonies per plate", "setting": "TA100; TA100 +S9, 10 μg/plate", "value": "−5"}, {"measurement": "revertant colonies per plate", "setting": "TA100; TA100 −S9, 5 μg/plate", "value": "−32"}, {"measurement": "revertant colonies per plate", "setting": "TA100; TA100 −S9, 10 μg/plate", "value": 3}, {"measurement": "R17 log kill 16 uM", "setting": "R17 [2]; Table 6, 1 minute irradiation = 1.2 J/cm^2", "value": ">6.1", "unit": "log"}, {"measurement": "R17 log kill 32 uM", "setting": "R17 [2]; Table 6, 32 uM, 1 minute irradiation = 1.2 J/cm^2", "value": ">6.1", "unit": "log"}, {"measurement": "R17 log kill 64 uM", "setting": "R17 [2]; Table 6, 64 uM, 1 minute irradiation = 1.2 J/cm^2", "value": ">6.1", "unit": "log"}, {"measurement": "R17 log kill 8 uM", "setting": "R17 [2]; Table 7, 8 uM, 1 minute irradiation", "value": ">6", "unit": "log"}, {"measurement": "R17 log kill 16 uM", "setting": "R17 [2]; Table 7, 1 minute irradiation", "value": ">6", "unit": "log"}, {"measurement": "revertant colonies per plate", "setting": "TA1537; TA1537 +S9, 10 μg/plate", "value": "−1"}, {"measurement": "revertant colonies per plate", "setting": "TA1537; TA1537 +S9, 50 μg/plate", "value": 17}, {"measurement": "revertant colonies per plate", "setting": "TA1537; TA1537 +S9, 250 μg/plate", "value": 99}, {"measurement": "revertant colonies per plate", "setting": "TA1537; TA1537 +S9, 500 μg/plate", "value": 369}, {"measurement": "dose showing a response", "setting": "TA1537; TA1537, in the presence of S9", "value": 50, "unit": "μg/plate"}, {"measurement": "revertant colonies per plate", "setting": "TA1537; TA1537 −S9, 10 μg/plate", "value": 141}, {"measurement": "revertant colonies per plate", "setting": "TA1537; TA1537 −S9, 50 μg/plate", "value": 2010}, {"measurement": "revertant colonies per plate", "setting": "TA1537; TA1537 −S9, 100 μg/plate", "value": 795}, {"measurement": "revertant colonies per plate", "setting": "TA1537; TA1537 −S9, 250 μg/plate", "value": 228}, {"measurement": "revertant colonies per plate", "setting": "TA1537; TA1537 −S9, 500 μg/plate", "value": 43}, {"measurement": "HIV Log Kill 16 μM", "setting": "cell-free virus (HIV); [4]", "value": 2.0, "unit": "log"}, {"measurement": "HIV Log Kill 32 μM", "setting": "cell-free virus (HIV); [4]", "value": 3.1, "unit": "log"}, {"measurement": "HIV Log Kill 64 μM", "setting": "cell-free virus (HIV); [4]", "value": ">3.8", "unit": "log"}, {"measurement": "HIV Log Kill 16 μM", "setting": "cell-free virus (HIV); [5]", "value": 2.1, "unit": "log"}, {"measurement": "HIV Log Kill 32 μM", "setting": "cell-free virus (HIV); [5]", "value": 3.2, "unit": "log"}, {"measurement": "HIV Log Kill 64 μM", "setting": "cell-free virus (HIV); [5]", "value": ">2.8", "unit": "log"}, {"measurement": "R17 inactivation compared with AMT", "setting": "R17 [3]", "value": "more efficient at inactivating R17 than was AMT"}]}]}
